# pIC50: −log10 of the molar value.
# System: HIV-1
# Assay: IC50 determination of an anti-viral (Table 3)
# Assay type: cell-based
# Details: Human immunodeficiency virus 1
smiles,measurement,value
CCCCC#CCSc1ccccc1OCCCC [BPHS],pIC50,4.40
